Drawing on US8999981B2, “3-amido-pyrrolo[3,4-C]pyrazole-5(1H, 4H,6H) carbaldehyde derivatives” (Pfizer Inc., priority 2007, dated 2015), this text covers Ki for 46 compounds.

Each structure is given as a SMILES string.

In the test the target is Protein Kinase C beta 2 (PKCβII) (Homo sapiens (Human), UniProt P05771). The experiment in a line: PKCβII coupled PK/LDH spectrophotometric kinase assay. As to conditions: apparent Ki, ATP-competitive model (Morrison equation); 0.1 mM ATP, 30° C.; read-out: PKCb Ki. Type of test: biochemical. The procedure: This transfer is coupled to the oxidation of β-NADH through the activities of Pyruvate Kinase (PK) and Lactate Dehydrogenase (LDH). β-NADH conversion to NAD+ is monitored by the decrease in absorbance at 340 nm (e=6.22 cm^−1 mM^−1) using a Molecular Devices SPECTRA max PLUS spectrophotometer.
A typical assay was carried out on a 96-well, clear microtiter plate in a Molecular Devices spectrophotometer for 20 minutes at 30° C. in 0.1 mL of assay buffer containing 50 mM HEPES, pH 7.4, 5 nM PKC, 23 units of pyruvate kinase, 33 units of lactate dehydrogenase, 0.15 mM peptide, 0.1 mM ATP, 1 mM DTT, 4 mM PEP, 8 mM MgCl2, 0.3 mM NADH, 60 mM CaCl2, 10 mg/mL PS, 50 ng/mL PMA, 7.5% DMSO and from about 10,000 nM to 0.169 nM compound inhibitor. Stock solutions of 3-sn-phosphatidyl-L-serine (PS) and phorbol-12-myristate-13-acetate (PMA) were sonicated for 30 seconds just prior to addition to assay buffer and assays were initiated by the addition of 100 μM ATP.
Enzyme turnover values (kcat) were calculated according to […], where [E] is the total enzyme concentration. Enzyme inhibition constants (apparent K values) were determined by fitting initial velocities at variable inhibitor concentrations to a model for ATP competitive inhibition based on the Morrison equation). Morrison, J. F., Biochim. Biophys Acta 185: 269-286 (1969).

Sequence of Protein Kinase C beta 2 (PKCβII) (P05771 other isoform, or with tags, fused parts or gaps): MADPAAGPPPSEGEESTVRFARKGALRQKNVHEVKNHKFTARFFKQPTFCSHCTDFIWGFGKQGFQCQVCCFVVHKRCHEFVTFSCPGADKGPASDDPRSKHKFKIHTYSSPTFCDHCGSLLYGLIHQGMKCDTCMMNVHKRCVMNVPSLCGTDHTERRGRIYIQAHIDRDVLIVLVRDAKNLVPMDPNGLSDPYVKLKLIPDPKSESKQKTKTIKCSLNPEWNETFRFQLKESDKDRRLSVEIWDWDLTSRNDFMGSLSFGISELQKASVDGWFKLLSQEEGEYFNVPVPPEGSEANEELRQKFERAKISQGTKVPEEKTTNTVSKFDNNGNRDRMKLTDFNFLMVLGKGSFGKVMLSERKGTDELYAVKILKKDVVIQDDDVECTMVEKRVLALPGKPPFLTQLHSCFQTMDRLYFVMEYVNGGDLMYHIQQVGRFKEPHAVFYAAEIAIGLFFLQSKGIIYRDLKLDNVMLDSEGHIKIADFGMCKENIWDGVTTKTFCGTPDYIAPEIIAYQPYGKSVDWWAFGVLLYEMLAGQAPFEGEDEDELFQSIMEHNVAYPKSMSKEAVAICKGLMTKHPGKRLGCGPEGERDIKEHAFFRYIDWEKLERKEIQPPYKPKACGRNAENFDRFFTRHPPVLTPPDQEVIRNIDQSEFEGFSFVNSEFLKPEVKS

Consider `COc1cc(C(=O)Nc2n[nH]c3c2CN(C(=O)N2C[C@@H]4CCCN4C[C@@H]2C)C3(C)C)nc(OC)n1` [Example A59], for which the Ki turned out to be 94.5 nM. Then `C[C@H]1CN2CCC[C@H]2CN1C(=O)N1Cc2c(NC(=O)c3cccc(C#N)c3)n[nH]c2C1(C)C` [Example A60], with 17.1 nM. In the case of `CCc1ccc(C(=O)Nc2n[nH]c3c2CN(C(=O)N2C[C@@H]4CCCN4C[C@@H]2C)C3(C)C)cc1` [Example A61] it was 23.8 nM; in that of `Cc1cc(C(=O)Nc2n[nH]c3c2CN(C(=O)N2C[C@@H]4CCCN4C[C@@H]2C)C3(C)C)ccc1F` [Example A62], 50.8 nM. As for `C[C@H]1CN2CCC[C@H]2CN1C(=O)N1Cc2c(NC(=O)c3cccc(F)c3F)n[nH]c2C1(C)C` [Example A63], the Ki stood at 65.4 nM. Then `C[C@H]1CN2CCC[C@H]2CN1C(=O)N1Cc2c(NC(=O)c3ccc4c(c3)CCO4)n[nH]c2C1(C)C` [Example A64], with 15.9 nM; and `Cc1cccc(C(=O)Nc2n[nH]c3c2CN(C(=O)N2C[C@@H]4CCCN4C[C@@H]2C)C3(C)C)c1` [Example A65], with 54.5 nM. In the case of `C[C@H]1CN2CCC[C@H]2CN1C(=O)N1Cc2c(NC(=O)c3ccc(C#N)cc3F)n[nH]c2C1(C)C` [Example A66], the Ki was determined as 122 nM. Then `C[C@H]1CN2CCC[C@H]2CN1C(=O)N1Cc2c(NC(=O)c3ccc(Cl)cn3)n[nH]c2C1(C)C` [Example A67], with 24.3 nM; and `C[C@H]1CN2CCC[C@H]2CN1C(=O)N1Cc2c(NC(=O)c3cc(Cl)ccn3)n[nH]c2C1(C)C` [Example A68], with 21.3 nM; and `CC[C@H]1CN2CCC[C@H]2CN1C(=O)N1Cc2c(NC(=O)c3ccccc3)n[nH]c2C1(C)C` [Example A69], with 67.8 nM.

Regarding `CC[C@H]1CN2CCC[C@H]2CN1C(=O)N1Cc2c(NC(=O)c3ccccn3)n[nH]c2C1(C)C` [Example A70], the Ki is 46.2 nM. Then `CC[C@H]1CN2CCC[C@H]2CN1C(=O)N1Cc2c(NC(=O)c3cccc(Cl)c3)n[nH]c2C1(C)C` [Example A71], with 49.9 nM; and `CC[C@H]1CN2CCC[C@H]2CN1C(=O)N1Cc2c(NC(=O)c3ccccc3F)n[nH]c2C1(C)C` [Example A72], with 105 nM; and `CC[C@H]1CN2CCC[C@H]2CN1C(=O)N1Cc2c(NC(=O)c3ccc(F)cc3)n[nH]c2C1(C)C` [Example A73], with 115 nM. Turning to `C[C@H]1CN2CCC[C@H]2CN1C(=O)N1Cc2c(NC(=O)c3nc(Cl)c(Cl)s3)n[nH]c2C1(C)C` [Example A74], the Ki amounted to 10.4 nM. Consider `Cc1cc(C(=O)Nc2n[nH]c3c2CN(C(=O)N2C[C@@H]4CCCN4C[C@@H]2C)C3(C)C)nc(C)n1` [Example A75], for which the Ki worked out at 56.9 nM.

Turning to `C[C@H]1CN2CCC[C@H]2CN1C(=O)N1Cc2c(NC(=O)c3cc4cccn4cn3)n[nH]c2C1(C)C` [Example A76], the Ki turned out to be 13.9 nM. Then `C[C@H]1CN2CCC[C@@H]2CN1C(=O)N1Cc2c(NC(=O)c3ccccn3)n[nH]c2C1(C)C` [Example A77], with 77.8 nM; and `CC1(C)c2[nH]nc(NC(=O)c3ccccn3)c2CN1C(=O)N1C[C@@H]2CCCN2C[C@@H]1CO` [Example A78], with 165 nM. In the case of `CCC1CN(C(=O)N2Cc3c(NC(=O)c4ccccn4)n[nH]c3C2(C)C)CCN1C` (stereo not shown) [Example A79] it was 79.6 nM. On to `CC[C@H](C)[C@H]1CN2CCC[C@@H]2CN1C(=O)N1Cc2c(NC(=O)c3ccccn3)n[nH]c2C1(C)C` [Example A80], for which the Ki was determined as 129 nM. Then `CC1(C)CN2CCC[C@H]2CN1C(=O)N1Cc2c(NC(=O)c3ccccn3)n[nH]c2C1(C)C` [Example A81], with 125 nM; and `CC1(C)CN2CCC[C@H]2CN1C(=O)N1Cc2c(NC(=O)c3ccccn3)n[nH]c2C1(C)C` [Example A82], with 81.8 nM; and `CCCN1C[C@H](C)N(C(=O)N2Cc3c(NC(=O)c4ccccn4)n[nH]c3C2(C)C)C[C@H]1CCO` [Example A83], with 9.53 nM. `CC[C@H](C)[C@H]1CN2C[C@H](O)C[C@H]2CN1C(=O)N1Cc2c(NC(=O)c3ccccn3)n[nH]c2C1(C)C` [Example A84]: the Ki was 139 nM. Turning to `CC[C@H](C)[C@H]1CN2C[C@H](O)C[C@H]2CN1C(=O)N1Cc2c(NC(=O)c3ccccn3)n[nH]c2C1(C)C` [Example A85], the Ki stood at 15.2 nM. `CCC1(C)c2[nH]nc(NC(=O)c3ncc(F)cc3F)c2CN1C(=O)C1C[C@@H]2CCCN2C[C@@H]1C` (stereo partly shown) [Example A86]: the Ki turned out to be 74.1 nM. `C[C@H]1CN2CCC[C@H]2CN1C(=O)N1Cc2c(NC(=O)c3cc(N(C)C)ccn3)n[nH]c2C1(C)C` [Example A87]: the Ki is 32.3 nM. `C[C@H]1CN2CCC[C@H]2CN1C(=O)N1Cc2c(NC(=O)c3ccc4ccccc4n3)n[nH]c2C1(C)C` [Example A88]: the Ki came to 17.8 nM.

Turning to `C=CCN1C[C@H](C)N(C(=O)N2Cc3c(NC(=O)c4ccccn4)n[nH]c3C2(C)C)C[C@H]1C` [Example A89], the Ki is 15.7 nM.

For `CC[C@H]1CN2CCC[C@@H]2CN1C(=O)N1Cc2c(CC(=O)c3ccccn3)n[nH]c2C1(C)C` [Example A90], the Ki came to 107 nM. In the case of `C[C@H]1CN2CCC[C@H]2CN1C(=O)N1Cc2c(NC(=O)c3ccc(Br)cn3)n[nH]c2C1(C)C` [Example A91] it was 20.3 nM. Then `C[C@H]1CN2CCC[C@H]2CN1C(=O)N1Cc2c(NC(=O)c3ccc(F)cn3)n[nH]c2C1(C)C` [Example A92], with 20.3 nM; and `COCCN1C[C@H](C)N(C(=O)N2Cc3c(NC(=O)c4ccccn4)n[nH]c3C2(C)C)C[C@H]1C` [Example A93], with 63.6 nM. `CCN1C[C@H](C)N(C(=O)N2Cc3c(NC(=O)c4ccccn4)n[nH]c3C2(C)C)C[C@H]1C` [Example A95]: the Ki is 9.11 nM.

Take `CC1CN(C(=O)N2Cc3c(NC(=O)c4ccccn4)n[nH]c3C2(C)C)C(C)CN1CCCO` (stereo not shown) [Example A99]: the Ki was 19.9 nM.

In the case of `CC(C)[C@H]1CN2CCC[C@H]2CN1C(=O)N1Cc2c(NC(=O)c3ccccn3)n[nH]c2C1(C)C` [Example A100], the Ki was 14.1 nM.

With `CC(C)[C@H]1CN2CCC[C@H]2CN1C(=O)N1Cc2c(NC(=O)c3ccc(F)cc3F)n[nH]c2C1(C)C` [Example A101], the Ki was 148 nM.

Regarding `CCCN1C[C@H](C)N(C(=O)N2Cc3c(NC(=O)c4ccc(F)cc4F)n[nH]c3C2(C)C)C[C@H]1CCO` [Example A102], the Ki was 45.9 nM. On to `C[C@H]1CN2CCC[C@H]2CC1C(=O)N1Cc2c(NC(=O)c3csc(Br)n3)n[nH]c2C1(C)C` (stereo partly shown) [Example A103], for which the Ki amounted to 12.9 nM.

In the case of `C[C@H]1CN2C[C@H]3CC3[C@H]2CN1C(=O)N1Cc2c(NC(=O)c3ccccn3)n[nH]c2C1(C)C` (stereo partly shown) [Example A104], the Ki was 83.7 nM. `C[C@H]1CN2C[C@@H](F)C[C@H]2CN1C(=O)N1Cc2c(NC(=O)c3ccccn3)n[nH]c2C1(C)C` [Example A105]: the Ki amounted to 109 nM. Regarding `C[C@H]1CN2CCC[C@H]2CN1C(=O)N1Cc2c(NC(=O)C3CCCCO3)n[nH]c2C1(C)C` (stereo partly shown) [Example A112], the Ki stood at 186 nM.

As to `C[C@@H]1CN(C(=O)N2Cc3c(NC(=O)c4ccccn4)n[nH]c3C2(C)C)[C@@H](C)CN1C` [Example A113], the Ki worked out at 13.9 nM. In the case of `C[C@H]1CN(C)C(C)(C)CN1C(=O)N1Cc2c(NC(=O)c3ccc(F)cc3F)n[nH]c2C1(C)C` [Example A114] it was 87.1 nM.
